Measurements from the METLIN SMRT retention time set (Domingo-Almenara et al. 2019).

assay: gradient 5% acetonitrile 3 min, to 50% in 2 min, to 85% in 15 min, held 3 min, 100 µL/min; settings: column: Zorbax Extend-C18 2.1 x 50 mm; eluents: water / acetonitrile, 0.1% formic acid
Method in brief: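 Pure standards were run in mixtures of ~100 molecules by HPLC coupled to a quadrupole time-of-flight mass spectrometer. The column was a Zorbax Extend-C18 (2.1 × 50 mm, 1.8 μm) at 100 μL/min, with water and acetonitrile each containing 0.1% formic acid, in positive and negative ionization mode. Dead and dwell volumes were 40 μL and 900 μL. Retention time was taken from computationally picked adduct peaks, each manually inspected, with data collected over 3 months.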

| Structure (SMILES) | RP-LC retention time |
| --- | --- |
| CS(=O)(=O)c1ccc2nc(NC(=O)c3csc(-n4cccc4)n3)sc2c1 | 849 s |
| COc1ccc(S(=O)(=O)N2CCC(Cc3nncn3-c3ccccc3)CC2)cc1 | 775 s |
| Cc1ccc(Nc2c(-c3ccccc3)nc3ccc(Br)cn23)cc1 | 881 s |
| Cc1ccc(CN2CC(c3ncc(C)n3Cc3cccnc3)C2)s1 | 683 s |
| CCOC(=O)c1c(C)[nH]c(CCC(=O)Nc2ccc(F)cc2F)c1C | 905 s |
| O=C(c1nnc(-c2ccc(S(=O)(=O)N3CCOCC3)cc2)o1)N1CCCCCC1 | 862 s |
| Cc1ccc(NS(=O)(=O)c2cc3c4c(c2)CCC(=O)N4CCC3)cc1C | 880 s |
| COCc1c(C(=O)O)nnn1-c1cccc(C(F)(F)F)c1 | 760 s |
| O=C(CN1C(=O)NC(c2ccc(Cl)cc2)C2=C1COC2=O)Nc1ccc(Br)cc1F (stereo unspecified) | 877 s |
| COCCCN1CN=C(Nc2nc(C)c3cc(C)ccc3n2)NC1 | 555 s |
| CC(C)c1nc(-c2ccc(OC3CCNC3)cc2)no1 (stereo unspecified) | 631 s |
| CCCN(CCC)CCNC(=O)C1CCCN(c2ncnc3c2nc2n3CCCCC2)C1 (stereo unspecified) | 599 s |
| c1ccc(-n2nnc(-c3noc(-c4ccncc4)n3)c2-c2ccncc2)cc1 | 732 s |
| COc1ccc(-c2nc3n(c2C(=O)Nc2nc(-c4ccccc4)cs2)CCS3(=O)=O)cc1 | 1010 s |
| CC(=O)Nc1ccc(C(=O)NC2CCN(c3cc(N4CCCC4)cnn3)C2)cc1 (stereo unspecified) | 598 s |
| CC(=O)Nc1ccc2c(c1)CN(C(=O)c1c(F)cccc1Cl)C(C(=O)N(C)C)C2 (stereo unspecified) | 900 s |
| N#Cc1ccc(C(=O)Nc2cccnc2N2CCCC2)cc1 | 583 s |
| COc1ccc(N2CCN(C(=O)c3cn(-c4cc(N5CCCCC5)ncn4)cn3)CC2)cc1 | 817 s |

More lines, now with the values ahead:

| RP-LC retention time | Structure (SMILES) |
| --- | --- |
| 685 s | CC(C)S(=O)(=O)Nc1ccc2c(c1)CN(C(=O)c1ccco1)CC2 |
| 622 s | O=C(Nc1ccccn1)C1CCN(C(=O)C2Sc3ccccc3NC2=O)CC1 (stereo unspecified) |
| 862 s | CCSc1nnc(NC(=O)C2CCN(S(=O)(=O)c3ccc4c(c3)sc(=O)n4C)CC2)s1 |
| 971 s | O=C(Nc1ccccc1)C1CCCN(c2nc3ccsc3c(=O)n2Cc2ccc(F)cc2)C1 (stereo unspecified) |
| 1160 s | CCCCn1c(=O)c2ccccc2n(Cc2nc(-c3ccc(OC)cc3)no2)c1=O |
| 661 s | COC(=O)c1c(NCc2c(C)noc2C)c2ccccc2[nH]c1=O |
| 579 s | Cn1c(N2CCCC(C(=O)NCC3CCN(Cc4ccccc4F)CC3)C2)cc(=O)n(C)c1=O (stereo unspecified) |
| 785 s | CCN1C(=O)C2(CCN(C(=O)c3c(C)noc3C)CC2)c2ccccc21 |
| 936 s | COc1ccc(NC(=O)CSc2nccc(N3CCN(c4cc(C)ccc4C)CC3)n2)cc1Cl |
| 704 s | CCc1c(C2CCN(C(=O)c3cc(C)oc3C)CC2)noc1N |
| 762 s | CC(=O)c1ccc(NC(=O)CN2C(=O)NC3(CCC(C)CC3)C2=O)cc1 (stereo unspecified) |
| 885 s | O=C(NC1CCCCCCC1)C1CCN(C(=O)c2ncn3c2COC(c2ccccc2)C3)CC1 (stereo unspecified) |
| 591 s | COc1ccccc1NC(=O)N1CCC(CNC(=O)C(=O)Nc2cccnc2)CC1 |
| 1260 s | CCN1C(=O)COc2ccc(-c3noc(-c4ccc(C(F)(F)F)cc4)n3)cc21 |
| 1020 s | Cc1noc(C)c1-c1ccc(S(=O)(=O)N2CCC(C)CC2)cc1 |
| 840 s | CCc1cccc(NC(=O)Cn2nc(C(=O)N3CCOCC3)c3ccccc32)c1 |
| 1020 s | Cc1ccc2c(c1)N(S(C)(=O)=O)CCC(C(=O)Nc1ccccc1C(C)C)O2 (stereo unspecified) |
| 627 s | CCc1cc(=O)n(CC(=O)N2CCc3ccccc32)c(N)n1 |
